Experimental data: patent US20210267203A1, “PESTICIDALLY ACTIVE AZOLE-AMIDE COMPOUNDS” (SYNGENTA PARTICIPATIONS AG, priority 2018, published 2021)

Columns and labels:
Type in all cases: in vivo
[1] = test system: Spodoptera littoralis (Egyptian Cotton Leaf Worm); experiment: Example B9: Spodoptera littoralis (Egyptian cotton leaf worm), cotton leaf discs sprayed, L1 larvae; details: foliar, 72 h, application rate 200 ppm, 3 days after infestation
Procedure, shortened: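 Leaf discs on agar sprayed with aqueous dilutions from 10,000 ppm DMSO stock, dried, then infested with five L1 larvae. Mortality, anti-feeding and growth inhibition scored against untreated samples 3 days after infestation; control counted when any category exceeds untreated.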

[2] = test system: Myzus persicae (Green Peach Aphid); experiment: Example B7: Myzus persicae (green peach aphid), systemic activity; details: 144 h, test rate 24 ppm, pea seedling roots in test solution, 6 days
Procedure: Example B7: Myzus persicae (Green Peach Aphid), Systemic Activity
Roots of pea seedlings infested with an aphid population of mixed ages were placed directly into aqueous test solutions prepared from 10,000 DMSO stock solutions. The samples were assessed for mortality 6 days after placing seedlings into test solutions.

[3] = test system: Myzus persicae (Green Peach Aphid); experiment: Example B8: Myzus persicae (green peach aphid), intrinsic activity; details: 120 h, test rate 12 ppm, sucrose solution, 24-well, 5 days after infestation
Procedure, shortened: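 Compounds diluted from 10,000 ppm DMSO stock were mixed with sucrose solution under stretched Parafilm in a sachet feeding setup, with aphid-infested pea seedlings placed on the membrane. Mortality was scored 5 days after infestation.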

[4] = test system: Chilo suppressalis (Striped Rice Stemborer); experiment: Example B4: Chilo suppressalis (striped rice stemborer), artificial diet, L2 larvae; details: 144 h, application rate 200 ppm, 6 days after infestation
Procedure, shortened: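 L2 larvae (6-8 per well) placed on artificial diet treated with aqueous test solutions prepared from 10,000 ppm DMSO stocks, after drying. Mortality, anti-feeding and growth inhibition scored against untreated samples 6 days after infestation; control means at least one category exceeds untreated.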

[5] = test system: Euschistus heros (Neotropical Brown Stink Bug); experiment: Example B2: Euschistus heros (neotropical brown stink bug), soybean leaves sprayed, N2 nymphs; details: 120 h, application rate 200 ppm, 5 days after infestation, read-out: effect in at least one of the two categories (mortality or growth inhibition)
Procedure, shortened: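 Soybean leaves on agar sprayed with aqueous test solutions made from 10,000 ppm DMSO stocks, dried, then infested with N2 nymphs. Mortality and growth inhibition scored versus untreated samples 5 days after infestation; activity threshold at 200 ppm.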

[6] = test system: Myzus persicae (Green Peach Aphid); experiment: Example B6: Myzus persicae (green peach aphid), feeding/contact activity; details: 144 h, application rate 200 ppm, 6 days after infestation
Procedure: Example B6: Myzus persicae (Green Peach Aphid):Feeding/Contact Activity
Sunflower leaf discs were placed onto agar in a 24-well microtiter plate and sprayed with aqueous test solutions prepared from 10,000 ppm DMSO stock solutions. After drying, the leaf discs were infested with an aphid population of mixed ages. The samples were assessed for mortality 6 days after infestation.

[7] = test system: Frankliniella occidentalis (Western Flower Thrips); experiment: Example B3: Frankliniella occidentalis (western flower thrips), feeding/contact activity; details: 168 h, application rate 200 ppm, mixed ages, 7 days after infestation
Procedure: Example B3: Frankliniella occidentalis (Western Flower Thrips):Feeding/Contact Activity
Sunflower leaf discs were placed on agar in 24-well microtiter plates and sprayed with aqueous test solutions prepared from 10,000 DMSO stock solutions. After drying the leaf discs were infested with a Frankliniella population of mixed ages. The samples were assessed for mortality 7 days after infestation.

[8] = test system: Tetranychus urticae (Two-Spotted Spider Mite); experiment: Example B11: Tetranychus urticae (two-spotted spider mite), feeding/contact activity; details: 192 h, application rate 200 ppm, mixed population (mobile stages), 8 days after infestation
Procedure: Example B11: Tetranychus urticae (Two-Spotted Spider Mite):Feeding/Contact Activity
Bean leaf discs on agar in 24-well microtiter plates were sprayed with aqueous test solutions prepared from 10,000 ppm DMSO stock solutions. After drying the leaf discs were infested with a mite population of mixed ages. The samples were assessed for mortality on mixed population (mobile stages) 8 days after infestation.

[9] = test system: Diabrotica Balteata (Corn Root Worm); experiment: Example B1: Diabrotica balteata (corn root worm), maize sprouts sprayed, L2 larvae; details: 96 h, application rate 200 ppm, 4 days after infestation, read-out: effect in at least one of the two categories (mortality or growth inhibition)
Procedure, shortened: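 Maize sprouts on agar sprayed with aqueous dilutions of 10,000 ppm DMSO stocks, dried, then infested with 6–10 L2 larvae per well. Mortality and growth inhibition scored against untreated samples 4 days after infestation; rates of 200 ppm.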

[10] = test system: Plutella xylostella (Diamond Back Moth); experiment: Example B5: Plutella xylostella (diamond back moth), artificial diet, 24-well, eggs; details: 192 h, application rate 200 ppm, 8 days after infestation, read-out: effect in at least one of the two categories (mortality or growth inhibition)
Procedure, shortened: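 Artificial diet in 24-well plates treated with aqueous dilutions of 10,000 ppm DMSO stocks, dried, then infested with Plutella eggs. Mortality and growth inhibition scored against untreated samples 8 days after infestation; activity rated at 200 ppm application rate.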

[11] = test system: Myzus persicae (Green Peach Aphid); experiment: Example B13: activity against Myzus persicae (green peach aphid), 96-well sucrose solution; details: 120 h, application rate 50 ppm, 5 days after infestation
Procedure, shortened: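 Compounds, from 10,000 ppm DMSO stocks, mixed into sucrose solution in wells under stretched Parafilm, with aphids placed on the membrane in an inverted feeding setup. Mortality scored 5 days after infestation.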

Cc1nc(C(C)NC(=O)c2cc(C(F)(F)F)cc(C3(C#N)CC3)c2)n(-c2ncccn2)n1 (centres unmarked) [P83, 3-(1-cyanocyclopropyl)-N-[1-(5-methyl-2-pyrimidin-2-yl-1,2,4-triazol-3-yl)ethyl]-5-(trifluoromethyl)benzamide]
≥ 80%: percent control (mortality, anti-feedant effect or growth inhibition) at 200 ppm [1] | mortality at 24 ppm [2] | mortality at 12 ppm [3] | percent control (mortality, anti-feedant effect or growth inhibition) at 200 ppm [4] | percent effect (mortality or growth inhibition) at 200 ppm [5] | mortality at 200 ppm [6] | mortality at 200 ppm [7] | mortality at 200 ppm [8] | percent effect (mortality or growth inhibition) at 200 ppm [9] | percent effect (mortality or growth inhibition) at 200 ppm [10] | mortality at 50 ppm [11]
